According to PubChem BioAssay AID248 (DTP/NCI, 2004):
Where “and” joins values, the source holds several entries; their conditions need not be identical. Equal values may be shown once. Inconclusive results and toxic doses are left out. Rule as the data show it: active = T/C of 150% or more; inactive = T/C below 125%.

Test system: L1210 leukemia ip in BDF1 mice, survival T/C
Test: NCI In Vivo Anticancer Drug Screen. Data for tumor model L1210 Leukemia (intraperitoneal) in B6D2F1 (BDF1) mice
Details: endpoint: mean survival time, higher = longer survival
Outline: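 Tumor cells were implanted, animals were treated, and survival was followed. The result divides the treated measurement by the vehicle-control measurement.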

[1] = dose: 100.0 mg/kg/injection, schedule: Q01DX001 (ip), vehicle: saline
[2] = dose: 200.0 mg/kg/injection, schedule: Q01DX001 (ip), vehicle: saline
[3] = dose: 400.0 mg/kg/injection, schedule: Q01DX001 (ip), vehicle: saline
[4] = dose: 25.0 mg/kg/injection, schedule: Q04DX003 (ip), vehicle: saline with Tween-80
[5] = dose: 50.0 mg/kg/injection, schedule: Q04DX003 (ip), vehicle: saline with Tween-80
[6] = dose: 100.0 mg/kg/injection, schedule: Q04DX003 (ip), vehicle: saline sonified
[7] = dose: 100.0 mg/kg/injection, schedule: Q04DX003 (ip), vehicle: saline with Tween-80
[8] = dose: 200.0 mg/kg/injection, schedule: Q04DX003 (ip), vehicle: saline with Tween-80
[9] = dose: 400.0 mg/kg/injection, schedule: Q04DX003 (ip), vehicle: saline with Tween-80
[10] = dose: 100.0 mg/kg/injection, schedule: Q04DX003 (ip), vehicle: Klucel (hydroxypropylcellulose) (HPC)
[11] = dose: 100.0 mg/kg/injection, schedule: Q01DX009 (ip), vehicle: saline
[12] = dose: 200.0 mg/kg/injection, schedule: Q01DX009 (ip), vehicle: saline
[13] = dose: 100.0 mg/kg/injection, schedule: Q01DX009 (ip), vehicle: Klucel (hydroxypropylcellulose) (HPC)
[14] = dose: 200.0 mg/kg/injection, schedule: Q04DX003 (ip), vehicle: Klucel (hydroxypropylcellulose) (HPC)
[15] = dose: 400.0 mg/kg/injection, schedule: Q04DX003 (ip), vehicle: Klucel (hydroxypropylcellulose) (HPC)
[16] = dose: 100.0 mg/kg/injection, schedule: Q01DX001 (ip), vehicle: carboxymethylcellulose (CMC)
[17] = dose: 200.0 mg/kg/injection, schedule: Q01DX001 (ip), vehicle: carboxymethylcellulose (CMC)
[18] = dose: 400.0 mg/kg/injection, schedule: Q01DX001 (ip), vehicle: carboxymethylcellulose (CMC)
[19] = dose: 100.0 mg/kg/injection, schedule: Q04DX002 (ip), vehicle: saline with Tween-80
[20] = dose: 200.0 mg/kg/injection, schedule: Q04DX002 (ip), vehicle: saline with Tween-80
[21] = dose: 400.0 mg/kg/injection, schedule: Q04DX002 (ip), vehicle: saline with Tween-80
[22] = dose: 100.0 mg/kg/injection, schedule: Q04DX003 (ip), vehicle: saline
[23] = dose: 200.0 mg/kg/injection, schedule: Q04DX003 (ip), vehicle: saline
[24] = dose: 400.0 mg/kg/injection, schedule: Q04DX003 (ip), vehicle: saline
[25] = dose: 200.0 mg/kg/injection, schedule: Q01DX009 (ip), vehicle: Klucel (hydroxypropylcellulose) (HPC)
[26] = dose: 400.0 mg/kg/injection, schedule: Q01DX009 (ip), vehicle: Klucel (hydroxypropylcellulose) (HPC)

Measured: T/C

Nc1ccn(C2OC(CO)C(O)C(O)C2N)c(=O)n1 (stereo not drawn)
inactive: [1] 97 % of control | [2] 103 % of control | [3] 100 % of control

O=C1NCN(c2ccccc2)C12CCNCC2
inactive: dose: 25.0 mg/kg/injection, schedule: Q01DX009 (ip), vehicle: saline sonified 108 % of control | [4] 89 % of control | dose: 50.0 mg/kg/injection, schedule: Q01DX009 (ip), vehicle: saline sonified 98 % of control | [5] 94 % of control | dose: 100.0 mg/kg/injection, schedule: Q01DX009 (ip), vehicle: saline sonified 103 % of control | [6] 95 % of control | [7] 89 % of control

Nc1ncnc2nc(I)[nH]c12
inactive: [1] 93 % of control | [2] 98 % of control

c1ccc(-c2ccc3ncccc3c2)cc1
inactive: [1] 97 % of control | [2] 100 % of control | [3] 105 % of control

CCOP(=O)(OCC)c1ccc([N+](=O)[O-])cc1
inactive: [1] 87 % of control | [2] 89 % of control

CCOC(=O)c1c[nH]c2cc(OCC3CC3)c(OCC3CC3)cc2c1=O
inactive: dose: 100.0 mg/kg/injection, schedule: Q01DX009 (ip), vehicle: saline with Tween-80 92 % of control

Cc1ccc(C(=O)CCCCl)c(C)c1
inactive: [7] 99 % of control | [8] 94 % of control | [9] 96 % of control

CCCCCCCCCCCCCC[N+](C)(C)Cc1cc(=O)c(O)co1
inactive: dose: 12.5 mg/kg/injection, schedule: Q01DX015 (ip), vehicle: saline 97 % of control | dose: 25.0 mg/kg/injection, schedule: Q01DX015 (ip), vehicle: saline 102 % of control | [4] 97 % of control | dose: 50.0 mg/kg/injection, schedule: Q01DX015 (ip), vehicle: saline 96 % of control | [5] 101 % of control | dose: 100.0 mg/kg/injection, schedule: Q01DX015 (ip), vehicle: saline 106 % of control | [10] 87 % of control | [7] 101 % of control

CCCCCCCCCCOCCCCCCCCCC
inactive: dose: 50.0 mg/kg/injection, schedule: Q01DX009 (ip), vehicle: saline 92 % of control | [11] 92 % of control | [12] 89 % of control

CC1CCCN(C)C1 (stereo not drawn)
inactive: [13] 100 % of control | [10] 100 % of control | [14] 100 % of control | [15] 93 % of control

OC1c2cc(Br)ccc2-c2c(F)cc(Br)cc21 (stereo not drawn)
inactive: [16] 100 % of control | [17] 109 % of control | [18] 103 % of control

CC/C=C(\CCC)CCCC
inactive: [19] 94 % of control | [20] 97 % of control | [21] 94 % of control

COc1ccc(C2=C(c3ccccc3)C(c3ccccc3)=C(c3ccc(OC)cc3)C2=O)cc1
inactive: [16] 89 % of control | [17] 89 % of control | [18] 91 % of control

[N-]=[N+]=NS(=O)(=O)CCc1ccccc1
inactive: [7] 96 % of control | [8] 110 % of control | [9] 98 % of control

C=C(Cl)COC(=S)S
inactive: [1] 107 % of control | [2] 103 % of control | [3] 100 % of control

CCOC(=O)C1CC1(C)c1ccccc1 (stereo not drawn)
inactive: [19] 97 % of control | [20] 93 % of control | [21] 90 % of control

Nc1nc(N)c(-c2ccc(Cl)cc2)c(CCc2cccc(NC(=O)c3cccc(S(=O)(=O)F)c3)c2)n1
inactive: dose: 100.0 mg/kg/injection, schedule: Q01DX001 (ip), vehicle: saline with Tween-80 93 % of control | dose: 200.0 mg/kg/injection, schedule: Q01DX001 (ip), vehicle: saline with Tween-80 95 % of control | dose: 400.0 mg/kg/injection, schedule: Q01DX001 (ip), vehicle: saline with Tween-80 97 % of control

CC(=O)OC(C)CN(C)C (stereo not drawn)
inactive: [11] 103 % of control | [22] 103 % of control | [12] 100 % of control | [23] 105 % of control | dose: 400.0 mg/kg/injection, schedule: Q01DX009 (ip), vehicle: saline 100 % of control | [24] 93 % of control

CCOC(=O)c1ccc(NC(=S)Nc2ccccc2S)cc1
inactive: dose: 25.0 mg/kg/injection, schedule: Q04DX002 (ip), vehicle: saline with Tween-80 101 % of control | dose: 50.0 mg/kg/injection, schedule: Q04DX002 (ip), vehicle: saline with Tween-80 101 % of control | [19] 93 % of control and 87 % of control

O=C(O)CC[n+]1c(/C=C/c2cc(Br)c(O)c(Br)c2)sc2ccccc21
inactive: [6] 102 % of control | dose: 200.0 mg/kg/injection, schedule: Q04DX003 (ip), vehicle: saline sonified 99 % of control

CC(=O)c1ccccc1O.CO.CO.[Cl][Nb][Cl]
inactive: dose: 75.0 mg/kg/injection, schedule: Q01DX001 (ip), vehicle: saline 93 % of control | dose: 150.0 mg/kg/injection, schedule: Q01DX001 (ip), vehicle: saline 90 % of control | dose: 300.0 mg/kg/injection, schedule: Q01DX001 (ip), vehicle: saline 90 % of control

O=[N+]([O-])c1ccc(OCc2ccccc2)c(Cl)c1
inactive: [4] 102 % of control | [5] 96 % of control | [7] 98 % of control and 105 % of control

Cc1cccc(C)c1NCC(=O)NN
inactive: dose: 100.0 mg/kg/injection, schedule: Q04DX002 (ip), vehicle: Klucel (hydroxypropylcellulose) (HPC) 106 % of control | dose: 200.0 mg/kg/injection, schedule: Q04DX002 (ip), vehicle: Klucel (hydroxypropylcellulose) (HPC) 106 % of control | dose: 400.0 mg/kg/injection, schedule: Q04DX002 (ip), vehicle: Klucel (hydroxypropylcellulose) (HPC) 120 % of control

CCCCCCCCCC1=NN(c2cccc(S(=O)(=O)N(C)c3ccccc3)c2)C(=O)C1
inactive: [22] 94 % of control | [23] 94 % of control | [24] 91 % of control

COc1ccc(/C=C2/CCOC2=O)cc1
inactive: dose: 12.5 mg/kg/injection, schedule: Q04DX002 (ip), vehicle: Klucel (hydroxypropylcellulose) (HPC) 99 % of control

CNC(=O)Nc1ccc(OC)cc1
inactive: [13] 96 % of control | [10] 110 % of control | [25] 100 % of control | [14] 107 % of control | [26] 102 % of control | [15] 105 % of control

COc1cc2ccc(/C(C)=N/OC(C)=O)cc2cc1OC
inactive: [7] 100 % of control | [8] 100 % of control | [9] 106 % of control

N#CC1(C#N)C2C=CC(C3CC=CC32)C1(C#N)C#N (stereo not drawn)
inactive: dose: 12.5 mg/kg/injection, schedule: Q01DX009 (ip), vehicle: saline with Tween-80 101 % of control | dose: 25.0 mg/kg/injection, schedule: Q01DX009 (ip), vehicle: saline with Tween-80 97 % of control | [4] 108 % of control | [5] 105 % of control | [7] 93 % of control

CCOc1ccc(C(c2ccc(OCC)cc2)C(Cl)(Cl)Cl)cc1
inactive: dose: 100.0 mg/kg/injection, schedule: Q01DX001 (ip), vehicle: Klucel (hydroxypropylcellulose) (HPC) 106 % of control | dose: 200.0 mg/kg/injection, schedule: Q01DX001 (ip), vehicle: Klucel (hydroxypropylcellulose) (HPC) 100 % of control | dose: 400.0 mg/kg/injection, schedule: Q01DX001 (ip), vehicle: Klucel (hydroxypropylcellulose) (HPC) 100 % of control

COc1ccccc1CN1CCCN(Cc2ccccc2OC)C1c1cccc(F)c1
inactive: dose: 50.0 mg/kg/injection, schedule: Q01DX001 (ip), vehicle: carboxymethylcellulose (CMC) 112 % of control | [16] 108 % of control | [17] 108 % of control | [18] 102 % of control

Cc1cc(C)c(S(=O)(=O)Nc2ccccc2F)c(C)c1
inactive: [13] 98 % of control | [25] 110 % of control | [26] 93 % of control

Cc1cccc(C2=NCCN2)c1C
inactive: dose: 5.0 mg/kg/injection, schedule: Q01DX009 (ip), vehicle: saline with Tween-80 97 % of control | dose: 10.0 mg/kg/injection, schedule: Q01DX009 (ip), vehicle: saline with Tween-80 103 % of control | dose: 20.0 mg/kg/injection, schedule: Q01DX009 (ip), vehicle: saline with Tween-80 97 % of control
